One assay concerns the target T1, hAR (Homo sapiens, UniProt P10275).
T1 sequence (P10275 1-920): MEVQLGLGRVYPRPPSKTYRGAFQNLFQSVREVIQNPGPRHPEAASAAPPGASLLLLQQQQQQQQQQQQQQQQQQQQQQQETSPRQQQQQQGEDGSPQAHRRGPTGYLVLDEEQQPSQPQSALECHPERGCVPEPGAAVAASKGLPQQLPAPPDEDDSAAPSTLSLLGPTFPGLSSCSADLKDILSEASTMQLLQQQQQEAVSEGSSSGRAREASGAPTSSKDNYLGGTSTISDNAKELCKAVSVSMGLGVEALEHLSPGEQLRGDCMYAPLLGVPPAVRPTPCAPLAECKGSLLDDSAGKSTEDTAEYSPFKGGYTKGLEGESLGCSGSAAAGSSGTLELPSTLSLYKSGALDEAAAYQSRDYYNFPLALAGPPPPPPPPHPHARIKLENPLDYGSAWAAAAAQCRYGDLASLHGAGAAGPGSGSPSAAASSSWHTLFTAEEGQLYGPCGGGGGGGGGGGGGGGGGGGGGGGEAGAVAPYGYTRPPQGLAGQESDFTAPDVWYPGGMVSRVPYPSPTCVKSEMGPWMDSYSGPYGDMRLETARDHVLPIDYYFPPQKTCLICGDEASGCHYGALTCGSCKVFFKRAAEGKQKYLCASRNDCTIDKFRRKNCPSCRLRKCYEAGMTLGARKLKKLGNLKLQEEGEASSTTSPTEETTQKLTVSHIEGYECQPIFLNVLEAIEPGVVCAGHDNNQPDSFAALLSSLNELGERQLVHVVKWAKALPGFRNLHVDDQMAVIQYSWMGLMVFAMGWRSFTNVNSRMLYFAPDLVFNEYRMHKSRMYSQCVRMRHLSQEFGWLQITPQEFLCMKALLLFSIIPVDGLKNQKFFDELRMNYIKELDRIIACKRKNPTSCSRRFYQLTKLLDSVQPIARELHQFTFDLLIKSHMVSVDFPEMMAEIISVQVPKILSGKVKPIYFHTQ
The assay can be described thus: Competitive binding of 3H-DHT to baculovirus/Sf9 generated hAR extracts. The conditions noted are these: one hour at 4° C., mean of multiple tests. The essentials:
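Baculovirus/Sf9-expressed hAR extract incubated with test compound, hydroxylapatite and 1 nM 3H-DHT tracer for 1 h at 4° C, then washed free of unbound tracer. Affinity given as concentration inhibiting half of maximal 3H-DHT binding.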

Another assay deals with T2, androgen receptor (Homo sapiens, UniProt P10275).
T2 sequence (P10275 1-920 Q868H): T1 sequence (P10275 1-920) with Q868H
The experiment in a line: AR Antagonist Cell Assay (MDA-MB453-MMTV clone 54-19, luciferase reporter). The class given is cell-based. The settings on record: inhibition of induction by DHT (final concentration at 100 μM), 17 hr, compound 0.32-1000 nM, mean of multiple tests. Here is the method:
The compounds ability to antagonize the effects of androgen on the androgen receptor were determined in a whole cell assay as described immediately below.
Experimental Procedure for AR Antagonist Cell Assay
This cell line is a stable transfected cell line with MDA-MB453 cell background (a human breast tumor cell line expressing androgen receptor). A MMTV minimal promoter containing ARE was first cloned in front of a firefly luciferase reporter gene. Then the cascade was cloned into transfection vector pUV120puro. […] Puromycin resistant stable cell line was selected.
Cell Culture Media and Reagents:
Plating medium: DMEM (phenol red free), 10% charcoal treated HyClone serum, 1% L-glutamine
Assay medium: DMEM (phenol red free), 1% charcoal treated HyClone serum, 1% L-glutamine, 1% penicillin/streptomycin
Cells are maintained in culture medium, splitting cells when they reach 80-90% confluence
To test compounds, 10,000 cells/well are plated to opaque 96 cell culture plate in 100 ul/well plating medium, culture for overnight at 37° C. in cell culture incubator
Add 10 ul/well freshly prepared DHT (final concentration at […]) to each well, incubate at 37° C. for 17 hr (overnight)
Add 50 ul/well 3× luciferase buffer, incubate at room temperature for 5 minutes, then count on Luminometer
The results are reported as the mean of multiple tests described below (the numbers of tests are indicated in the footnote). N.D. denotes that the compound was not tested.
(A reporter such as luciferase makes a cellular process visible.)

Where [1] appears, read: concentration at which one half of maximum binding of 1 nM 3H-DHT to hAR is inhibited, read-out: IC50.
[2] abbreviates: IC50, concentration at which one half of maximum binding of 1 nM 3H-DHT to hAR is inhibited.

Changes are numbered by the printed parent chain. Read-outs that look alike come from different tables or passages of the source.

As to `CC1(C)CN(Cc2cccc3nsnc23)C(=O)C1Oc1ccc(C#N)c(C(F)(F)F)c1` (stereo not shown) [Example 41, 4-(1-Benzo[1,2,5]thiadiazol-4-ylmethyl-4,4-dimethyl-2-oxo-pyrrolidin-3-yloxy)-2-trifluoromethyl-benzonitrile], the values for the half-maximal inhibitory concentration (IC50) on hAR (setting [1]) and on androgen receptor (read-out: IC50) were 107 nM and 72 nM, respectively.

`CC1(C)CN(Cc2cccc(OC(F)F)c2)C(=O)C1Oc1ccc(C#N)c(C(F)(F)F)c1` (stereo not shown) [Example 42, 4-[1-(3-Difluoromethoxy-benzyl)-4,4-dimethyl-2-oxo-pyrrolidin-3-yloxy]-2-trifluoromethyl-benzonitrile]: the concentration for half-maximal inhibition (IC50) (as a rule, the concentration needed to halve the response being measured) at hAR (setting [1]) amounted to 120 nM; on androgen receptor (read-out: IC50), 219 nM.

Consider `CC1(C)CN(Cc2cccc(C#N)c2)C(=O)C1Oc1ccc(C#N)c(C(F)(F)F)c1` (stereo not shown) [Example 45], for which the 50% inhibitory concentration (IC50) at hAR (setting [2]) and at androgen receptor was 50 nM in each case.

Regarding `CC1(C)CN(Cc2noc(-c3ccccc3)n2)C(=O)C1Oc1ccc(C#N)c(C(F)(F)F)c1` (stereo not shown) [Example 46, 4-[4,4-Dimethyl-2-oxo-1-(5-phenyl-[1,2,4]oxadiazol-3-ylmethyl)-pyrrolidin-3-yloxy]-2-trifluoromethyl-benzonitrile], the figures for the half-inhibitory concentration (IC50) at hAR (setting [2]) and on androgen receptor were 90 nM and 43 nM, respectively.

On to `CC1(C)CN(Cc2ccccc2C#N)C(=O)C1Oc1ccc(C#N)c(C(F)(F)F)c1` (stereo not shown) [Example 47, 4-[1-(2-Cyano-benzyl)-4,4-dimethyl-2-oxo-pyrrolidin-3-yloxy]-2-trifluoromethyl-benzonitrile], for which the values for the half-inhibitory concentration (IC50) at hAR (setting [2]) and at androgen receptor were 83 nM and 42 nM, respectively.

Take `CC1(C)CN(Cc2ccc(C#N)cc2)C(=O)C1Oc1ccc(C#N)c(C(F)(F)F)c1` (stereo not shown) [Example 48, 4-[1-(4-Cyano-benzyl)-4,4-dimethyl-2-oxo-pyrrolidin-3-yloxy]-2-trifluoromethyl-benzonitrile]: the half-inhibitory concentration (IC50) at hAR (setting [1]) was found to be 109 nM; against androgen receptor, 62 nM.

Regarding `COc1ccc(Cc2noc(CN3CC(C)(C)C(Oc4ccc(C#N)c(C(F)(F)F)c4)C3=O)n2)cc1` (stereo not shown) [Example 50, 4-{1-[3-(4-Methoxy-benzyl)-[1,2,4]oxadiazol-5-ylmethyl]-4,4-dimethyl-2-oxo-pyrrolidin-3-yloxy}-2-trifluoromethyl-benzonitrile], the IC50 at hAR (setting [1]) amounted to 152 nM; against androgen receptor, 35 nM.

`CC1(C)CN(Cc2nc(-c3ccccc3)no2)C(=O)C1Oc1ccc(C#N)c(C(F)(F)F)c1` (stereo not shown) [Example 52, 4-[4,4-Dimethyl-2-oxo-1-(3-phenyl-[1,2,4]oxadiazol-5-ylmethyl)-pyrrolidin-3-yloxy]-2-trifluoromethyl-benzonitrile]: the half-inhibitory concentration (IC50) at hAR (setting [2]) amounted to 160 nM; against androgen receptor it was 54 nM.

Regarding `CC1(C)CN(Cc2ccc3ccccc3n2)C(=O)C1Oc1ccc(C#N)c(C(F)(F)F)c1` (stereo not shown) [Example 54, 4-(4,4-Dimethyl-2-oxo-1-quinolin-2-ylmethyl-pyrrolidin-3-yloxy)-2-trifluoromethyl-benzonitrile], the IC50 at hAR (setting [1]) was 217 nM; at androgen receptor (read-out: IC50) it was over 1000 nM.

For `CC1(C)CN(Cc2nnc(-c3ccccc3)o2)C(=O)C1Oc1ccc(C#N)c(C(F)(F)F)c1` (stereo not shown) [Example 56, 4-[4,4-Dimethyl-2-oxo-1-(5-phenyl-[1,3,4]oxadiazol-2-ylmethyl)-pyrrolidin-3-yloxy]-2-trifluoromethyl-benzonitrile], the IC50 on hAR (setting [2]) stood at 171 nM; against androgen receptor, 735 nM.

Regarding `CC1(C)CN(Cc2ccc3nonc3c2)C(=O)C1Oc1ccc(C#N)c(C(F)(F)F)c1` (stereo not shown) [Example 57, 4-(1-Benzo[1,2,5]oxadiazol-5-ylmethyl-4,4-dimethyl-2-oxo-pyrrolidin-3-yloxy)-2-trifluoromethyl-benzonitrile], the IC50 on hAR (setting [2]) was 31 nM; at androgen receptor (read-out: IC50), over 1000 nM.

Consider `CC1(C)CN(Cc2ccc(-n3cccn3)cc2)C(=O)C1Oc1ccc(C#N)c(C(F)(F)F)c1` (stereo not shown) [Example 60, 4-[4,4-Dimethyl-2-oxo-1-(4-pyrazol-1-yl-benzyl)-pyrrolidin-3-yloxy]-2-trifluoromethyl-benzonitrile], for which the IC50 at hAR (setting [1]) is 115 nM; at androgen receptor (read-out: IC50), over 1000 nM.

With `Cc1ccc(-c2nnc(CN3CC(C)(C)C(Oc4ccc(C#N)c(C(F)(F)F)c4)C3=O)o2)cc1` (stereo not shown) [Example 61, 4-[4,4-Dimethyl-2-oxo-1-(5-p-tolyl-[1,3,4]oxadiazol-2-ylmethyl)-pyrrolidin-3-yloxy]-2-trifluoromethyl-benzonitrile], the 50% inhibitory concentration (IC50) at hAR (setting [1]) amounted to 101 nM; on androgen receptor, 51 nM.

As to `CC1(C)CN(Cc2nc(-c3ccc([N+](=O)[O-])cc3)cs2)C(=O)C1Oc1ccc(C#N)c(C(F)(F)F)c1` (stereo not shown) [Example 65, 4-{4,4-Dimethyl-1-[4-(4-nitro-phenyl)-thiazol-2-ylmethyl]-2-oxo-pyrrolidin-3-yloxy}-2-trifluoromethyl-benzonitrile], the 50% inhibitory concentration (IC50) on hAR (setting [2]) stood at 38 nM; on androgen receptor (read-out: IC50), 228 nM.

On to `COc1ccc(-c2nc(CN3CC(C)(C)C(Oc4ccc(C#N)c(C(F)(F)F)c4)C3=O)no2)cc1` (stereo not shown) [Example 66, 4-{1-[5-(4-Methoxy-phenyl)-[1,2,4]oxadiazol-3-ylmethyl]-4,4-dimethyl-2-oxo-pyrrolidin-3-yloxy}-2-trifluoromethyl-benzonitrile], for which the concentration for half-maximal inhibition (IC50) is 142 nM on hAR (setting [1]) and 84 nM against androgen receptor.

Consider `CSCN1CC(C)(C)C(Oc2ccc(C#N)c(C(F)(F)F)c2)C1=O` (stereo not shown) [Example 68, 4-(4,4-Dimethyl-1-methylsulfanylmethyl-2-oxo-pyrrolidin-3-yloxy)-2-trifluoromethyl-benzonitrile], for which the results for the IC50 on hAR (setting [1]) and at androgen receptor were 133 nM and 64 nM, respectively.

Regarding `CC1(C)CN(S(=O)(=O)c2ccccc2)C(=O)C1Oc1ccc(C#N)c(C(F)(F)F)c1` (stereo not shown) [Example 73, 4-(1-Benzenesulfonyl-4,4-dimethyl-2-oxo-pyrrolidin-3-yloxy)-2-trifluoromethyl-benzonitrile], the IC50 was determined as 206 nM at hAR (setting [1]) and 49 nM at androgen receptor.

The values above are taken from patent publication US7674819B2 (Warner-Lambert Company LLC, priority 2005, dated 2010).
